According to patent publication US20070056052A1, “Methods of generating knock-out rodents” (priority 2001, published 2007):
Entries after “also recorded” stand apart in the source; their conditions may differ.

Key:
Format in all cases: in vivo, rat
SD rats = experiment: Heritability test of F1 phenodeviant rats bred to SD rats
Protocol: (§1) ENU mutagenesis rat protocol: Pathogen-free inbred Wistar Furth (WF), inbred Fischer-344 (F344) and outbred Sprague Dawley (SD) male and female rats were obtained from Harlan Sprague Dawley, Inc. (Indianapolis, Ind.). All rats were given Teklad Lab Blox chow (Harlan Teklad, Madison, Wis.), acidified water ad libitum, and were housed under a 12-h light/12-h dark cycle. After a one week acclimation period, nine-week-old male rats were administered ENU as a single intraperitoneal injection; for a split dose, rats were injected with ENU once at 9 weeks of age and again at 10 weeks of age. One gram of ENU (Sigma) was dissolved in 10 mls of 95% ethanol and then diluted with 90 mls of phosphate citrate buffer prior to injection. All injections of ENU were given in the morning hours. To characterize the effect of ENU treatment on fertility in the various rat strains, mutagenized males were paired with untreated females of the same strain for consecutive 2-3 week periods, beginning 3-5 weeks after the first ENU treatment and continuing a minimum of 26 weeks post-ENU. We observed female rats for vaginal plugs, gross pregnancy and date of birth/size of litters. For our phenotypic mutant (phenodeviant) rat screening experiments, ENU-treated SD male rats were bred with SD female rats and all F1 pups were visually checked for gross abnormalities in physical development or behavior as compared to littermates at least twice prior to weaning at approximately 21 days of age. A subset of the F1 phenodeviant rats identified was bred to SD rats to determine inheritance of the observed phenotypic mutation. Several of the heritable phenodeviant rat lines are currently being maintained and backcrossed to eliminate residual ENU-induced genetic changes not associated with the phenotypic mutation.
(§2) Phenodeviant rat production: Multiple ENU dosing protocols in the SD rat strain determine their germline mutagenic potential by breeding ENU-treated SD males to females of the same strain to produce F1 offspring. These pups were examined for readily observable physical or behavioral abnormalities. Phenodeviants were identified at all doses listed in Table 2 with a variety of abnormalities observed. Phenodeviant F1 pups were born at various times between 6-52 weeks post-ENU treatment of male founders. The most frequent abnormalities visually identified were those of the eyes, tail, and growth. […] Selected phenodeviant rat F1 pups were maintained and bred to determine the heritability of the physical abnormalities (Table 3). […] These abnormalities were diverse (Table 4).

male rats = experiment: Toxicity and lifespan observation of ENU-treated male rats
Protocol: as §1, with “For our phenotypic mutant (phenodeviant) rat screening experiments, ENU-treated SD male rats were bred with SD female rats and all F1 pups were visually checked for gross abnormalities in physical development or behavior as compared to littermates at least twice prior to weaning at approximately 21 days of age. A subset of the F1 phenodeviant rats identified was bred to SD rats to determine inheritance of the observed phenotypic mutation. Several of the heritable phenodeviant rat lines are currently being maintained and backcrossed to eliminate residual ENU-induced genetic changes not associated with the phenotypic mutation.” left out

SD male rats (germ line) = experiment: Visual phenodeviant screen of F1 pups from ENU-treated SD males
Protocol: as §1, §2

## CCN(N=O)C(N)=O [ENU, N-ethyl-N-nitrosourea]
SD rats; Line 18, F1 founder female, initial ENU dose 2 × 60 mg/kg
  ENU-induced heritable phenotype, observed phenotype: crooked tail & slit eyes
SD rats; Line 18, initial ENU dose 2 × 60 mg/kg
  Heritable phenotype confirmed in multiple litters: yes
SD rats; Line 19, F1 founder male, initial ENU dose 2 × 50 mg/kg
  ENU-induced heritable phenotype, observed phenotype: growth on tail
SD rats; Line 19, initial ENU dose 2 × 50 mg/kg
  Heritable phenotype confirmed in multiple litters: yes
SD rats; Line 28, F1 founder female, initial ENU dose 2 × 60 mg/kg
  ENU-induced heritable phenotype, observed phenotype: red ring eyes
SD rats; Line 28, initial ENU dose 2 × 60 mg/kg
  Heritable phenotype confirmed in multiple litters: yes
SD rats; Line 29, F1 founder female, initial ENU dose 2 × 60 mg/kg
  ENU-induced heritable phenotype, observed phenotype: oblong face
SD rats; Line 29, initial ENU dose 2 × 60 mg/kg
  Heritable phenotype confirmed in multiple litters: yes
SD rats; Line 32, F1 founder female, initial ENU dose 2 × 60 mg/kg
  ENU-induced heritable phenotype, observed phenotype: slit eyes
SD rats; Line 32, initial ENU dose 2 × 60 mg/kg
  Heritable phenotype confirmed in multiple litters: yes
SD rats; Line 38, F1 founder male, initial ENU dose 2 × 60 mg/kg
  ENU-induced heritable phenotype, observed phenotype: curved tail
SD rats; Line 38, initial ENU dose 2 × 60 mg/kg
  Heritable phenotype confirmed in multiple litters: yes
SD rats; Line 42, F1 founder female, initial ENU dose 2 × 60 mg/kg
  ENU-induced heritable phenotype, observed phenotype: bald spots
SD rats; Line 42, initial ENU dose 2 × 60 mg/kg
  Heritable phenotype confirmed in multiple litters: yes
SD rats; Line 60, F1 founder female, initial ENU dose 2 × 60 mg/kg
  ENU-induced heritable phenotype, observed phenotype: scaly skin
SD rats; Line 60, initial ENU dose 2 × 60 mg/kg, only one litter to date
  Heritable phenotype confirmed in multiple litters: no^a
SD rats; Line 61, F1 founder male, initial ENU dose 2 × 60 mg/kg
  ENU-induced heritable phenotype, observed phenotype: swollen feet
SD rats; Line 61, initial ENU dose 2 × 60 mg/kg, only one litter to date
  Heritable phenotype confirmed in multiple litters: no^a
SD rats; Line 63, initial ENU dose 2 × 60 mg/kg
  Heritable phenotype confirmed in multiple litters: yes
SD rats; SD, ENU dose 100 mg/kg
  # phenodeviants heritable: 0
  # phenodeviants non-heritable: 4
  # phenodeviants unknown (sterile, not evaluated, being evaluated or died): 4
SD rats; SD, ENU dose 120 mg/kg
  # phenodeviants heritable: 0
  # phenodeviants non-heritable: 2
  # phenodeviants unknown (sterile, not evaluated, being evaluated or died): 1
SD rats; SD, ENU dose 2 × 50 mg/kg
  # phenodeviants heritable: 1
  # phenodeviants non-heritable: 4
  # phenodeviants unknown (sterile, not evaluated, being evaluated or died): 2
SD rats; SD, ENU dose 2 × 60 mg/kg
  # phenodeviants heritable: 9
  # phenodeviants non-heritable: 9
  # phenodeviants unknown (sterile, not evaluated, being evaluated or died): 61
SD rats; SD, single dose protocols
  heritability of mutations in phenodeviants tested: none of the six phenodeviant rats tested showed heritable mutations
Male rats; about one year post-ENU
  lifespan and tumors of fertile mutagenized male rats: shortened, with many developing skin and kidney tumors and lymphomas at approximately one year of age
Male rats; all doses of Table 1, SD, F344, WF
  acute toxicity to male rats: none of the ENU doses used were toxic to the male rats; also recorded: None of the doses listed in Table 1 were acutely toxic
SD male rats (germ line); single dose 100 mg/kg
  F1 phenodeviant rats, abnormality observed: behavioral: 1
  F1 phenodeviant rats, abnormality observed: craniofacial: 0
  F1 phenodeviant rats, abnormality observed: ear: 1
  F1 phenodeviant rats, abnormality observed: eye: 5
  F1 phenodeviant rats, abnormality observed: gonad: 1
  F1 phenodeviant rats, abnormality observed: growth (<50% littermates): 0
  F1 phenodeviant rats, abnormality observed: limb/digit: 0
  F1 phenodeviant rats, abnormality observed: multiple: 0
  F1 phenodeviant rats, abnormality observed: skin/hair: 0
  F1 phenodeviant rats, abnormality observed: tail: 0
SD male rats (germ line); single dose 100 mg/kg, 1251 F1 rats examined
  total number of phenodeviants: 8
SD male rats (germ line); single dose 120 mg/kg
  F1 phenodeviant rats, abnormality observed: behavioral: 0
  F1 phenodeviant rats, abnormality observed: craniofacial: 0
  F1 phenodeviant rats, abnormality observed: ear: 1
  F1 phenodeviant rats, abnormality observed: eye: 1
  F1 phenodeviant rats, abnormality observed: gonad: 0
  F1 phenodeviant rats, abnormality observed: growth (<50% littermates): 0
  F1 phenodeviant rats, abnormality observed: limb/digit: 0
  F1 phenodeviant rats, abnormality observed: multiple: 0
  F1 phenodeviant rats, abnormality observed: skin/hair: 0
  F1 phenodeviant rats, abnormality observed: tail: 1
SD male rats (germ line); single dose 120 mg/kg, 419 F1 rats examined
  total number of phenodeviants: 3
SD male rats (germ line); split dose 2 × 50 mg/kg
  F1 phenodeviant rats, abnormality observed: behavioral: 0
  F1 phenodeviant rats, abnormality observed: craniofacial: 0
  F1 phenodeviant rats, abnormality observed: ear: 0
  F1 phenodeviant rats, abnormality observed: eye: 4
  F1 phenodeviant rats, abnormality observed: gonad: 0
  F1 phenodeviant rats, abnormality observed: growth (<50% littermates): 0
  F1 phenodeviant rats, abnormality observed: limb/digit: 0
  F1 phenodeviant rats, abnormality observed: multiple: 0
  F1 phenodeviant rats, abnormality observed: skin/hair: 0
  F1 phenodeviant rats, abnormality observed: tail: 3
SD male rats (germ line); split dose 2 × 50 mg/kg, 782 F1 rats examined
  total number of phenodeviants: 7
SD male rats (germ line); split dose 2 × 60 mg/kg
  F1 phenodeviant rats, abnormality observed: behavioral: 0
  F1 phenodeviant rats, abnormality observed: craniofacial: 2
  F1 phenodeviant rats, abnormality observed: ear: 0
  F1 phenodeviant rats, abnormality observed: eye: 37
  F1 phenodeviant rats, abnormality observed: gonad: 0
  F1 phenodeviant rats, abnormality observed: growth (<50% littermates): 10
  F1 phenodeviant rats, abnormality observed: limb/digit: 5
  F1 phenodeviant rats, abnormality observed: multiple: 6
  F1 phenodeviant rats, abnormality observed: skin/hair: 6
  F1 phenodeviant rats, abnormality observed: tail: 13
SD male rats (germ line); split dose 2 × 60 mg/kg, 5163 F1 rats examined
  total number of phenodeviants: 79
